Laboratory results: patent US20110280941A1, “COMPOSITIONS OF PROTON PUMP INHIBITORS AND INSULIN SECRETAGOGUES, AND METHODS OF THEIR USE TO TREAT DIABETES” (Mefford Scientific, LLC, priority 2008, published 2011)

What was measured:
Assay type in all cases: in vivo, human
[1] = system: Type II diabetic patients; experiment: Plasma gastrin during 24 week omeprazole trial (Example 4); conditions: serum levels gradually reduced over time (FIG. 7)
Description: Statistical comparisons and analysis were performed with a commercial program, Analyse-it, version 2.20. Design: All subjects continued on their respective oral antidiabetic medications throughout the study. Baseline data was obtained in a fasting state after an overnight fast. Subjects were then administered 75 g of glucose and blood samples obtained at 1 and 2 hours. Following collection of baseline data, subjects were administered Omeprazole Delayed-Release Capsules USP, (Apotex Inc., Toronto, Canada [MUT] 179), 40 mg orally twice daily and blood samples again obtained after 8, and 16 weeks. Medications were not taken on the mornings of testing. Following the 16 week sample collection, subjects were increased to 80 mg Omeprazole twice daily and blood samples again obtained at 24 weeks. Measurements: Helicobacter Pylori IgG was obtained on each subject as a baseline as were Hemoglobin A1c and fasting Gastrin. Each 2 hour glucose tolerance test provided fasting glucose, insulin and c-peptide as well as 1 hour and 2 hour glucose and stimulated insulin and c-peptide. All measurements were obtained through a commercial laboratory using standardized analytical methods, Quest Diagnostics Laboratory, 5850 Rogerdale Road, Houston, Tex.

[2] = system: Type II diabetic patients; experiment: 2 hour glucose tolerance test during 24 week omeprazole trial (Example 4)
Description: (§1) Seven Type II diabetic patients were administered omeprazole for 24 weeks and data was obtained from fasting and following a 2 hour glucose tolerance test at 8 week intervals and compared to baseline values. Statistical comparisons and analysis were performed with a commercial program, Analyse-it, version 2.20.
(§2) Subjects: Five males, 2 females, age range 42-68 years, mean age 54+10 years. BMI's ranged from 31 to 49, mean 38+6. All subjects had co-morbid hypertension, four had co-morbid dyslipidemia and two had co-morbid hypothyroidism. All were stable on oral diabetes medications with 7/7 on metformin, 6/7 on pioglitazone (Actos), 4/7 on a DPP-4 inhibitor, sitagliptan (Januvia) and 4/7 on a Sulfonylurea. All subjects received a physical exam, review of systems and a baseline EKG prior to initiating the PPI trial. Subjects were then seen and evaluated at monthly intervals interviewed for adverse events and monitored for medication compliance and maintenance of daily blood glucose logs.
(§3) Design: All subjects continued on their respective oral antidiabetic medications throughout the study. Baseline data was obtained in a fasting state after an overnight fast. Subjects were then administered 75 g of glucose and blood samples obtained at 1 and 2 hours. Following collection of baseline data, subjects were administered Omeprazole Delayed-Release Capsules USP, (Apotex Inc., Toronto, Canada M9L 179), 40 mg orally twice daily and blood samples again obtained after 8, and 16 weeks. Medications were not taken on the mornings of testing. Following the 16 week sample collection, subjects were increased to 80 mg Omeprazole twice daily and blood samples again obtained at 24 weeks.
Measurements: Helicobacter Pylori IgG was obtained on each subject as a baseline as were Hemoglobin A1c and fasting Gastrin. Each 2 hour glucose tolerance test provided fasting glucose, insulin and c-peptide as well as 1 hour and 2 hour glucose and stimulated insulin and c-peptide. All measurements were obtained through a commercial laboratory using standardized analytical methods, Quest Diagnostics Laboratory, 5850 Rogerdale Road, Houston, Tex. 77072.

[3] = system: Type II diabetic patients; experiment: Hemoglobin A1c during 24 week omeprazole trial (Example 4)
Description: as §1, §2
Design: All subjects continued on their respective oral antidiabetic medications throughout the study. Baseline data was obtained in a fasting state after an overnight fast. Subjects were then administered 75 g of glucose and blood samples obtained at 1 and 2 hours. […]

[4] = system: Type II diabetic patients; experiment: % Beta Cell area calculated from the 2 hour glucose tolerance value (method of Meier et al) (Example 4); conditions: seven Type II diabetics; PPI administration
Description: as §3
Table 2 summarizes the effects of PPI administration on plasma Gastrin, Hemoglobin A1c and % Beta Cell area (calculated using the 2 hour glucose tolerance value by the method of Meier et al, Diabetes, vol 58, 1595-1603, 2009). […] Hemoglobin A1c, a measure of average blood glucose, was reduced by approximately 0.9% in this cohort, consistent with improved diabetes control (FIG. 6). Finally, the calculated Beta cell mass increased across the treatment period by approximately 25%.

[5] = after PPI administration (FIG. 4)

COc1ccc2[nH]c([S+]([O-])Cc3ncc(C)c(OC)c3C)nc2c1 (stereo not drawn) [Omeprazole, 5-methoxy-2-[(4-methoxy-3,5-dimethyl-2-pyridinyl)methyl]sulfinyl-1H-benzimidazole]
plasma gastrin, change by long term PPI administration [1]: markedly elevated
maximum glucose excursion at both 1 and 2 hours, change ([2]; 8 and 16 weeks, statistically significant reductions at 16 weeks (FIG. 3)): reduced
Stimulated insulin secretion at both 1 and 2 hours, change [2, 5]: increased
fasting insulin levels, change [2, 5]: unchanged
1 and 2 hour c-peptide secretion, change ([2]; after PPI administration (FIG. 5)): increased
Fasting blood glucose, change ([2]; at both 8 and 16 weeks (FIG. 3)): reduced
percent hemoglobin A1c, change for all patients ([3]; FIG. 1, statistically significant): decrease
Hemoglobin A1c reduction in this cohort ([3]; seven Type II diabetics, PPI administration up to 24 weeks (FIG. 6)): approximately 0.9%
calculated Beta cell mass increase across the treatment period [4]: approximately 25%
